Reference: ChEMBL document CHEMBL3885861, “Open TG-GATES”

Species on record: Rattus norvegicus
Test: Open TG-GATES - Regimen: Single
Assay type: toxicity, organism-based, Sprague-Dawley
Set-up: regimen Single, gender Male, age 6 weeks
Conditions: in vivo, po, 0 mg/kg, route gavage, dose level Control; for APTT / Bas / Eos / Fbg / Ht / Lym / MCH / MCHC / MCV / Mono / Neu / PT / Plat / RBC / Ret / WBC: tissue Blood; for KIDNEY_L / KIDNEY_R / KIDNEY_TOTAL: tissue Kidney; for LIVER: tissue Liver; for ALP / ALT / AST / BUN / CRE / Ca / Cl / DBIL / GLC / IP / K / LDH / Na / PL / RALB / TBIL / TC / TG / TP / gamma-GTP: tissue Plasma

**Q.** Which results are given for `Cc1cccc(Nc2cc(Cl)nc(SCC(=O)O)n2)c1C` [PIRINIXIC ACID]?
**A.** TERMINAL_BW (3 h): 202.9 g; APTT (3 h): 15.1 s; Bas (3 h): 0%; Eos (3 h): 0.4%; Fbg (3 h): 280 mg/dL; Ht (3 h): 40.2%; Lym (3 h): 77.6%; MCH (3 h): 21.5 pg; MCHC (3 h): 33.9%; MCV (3 h): 63.3 fL; Mono (3 h): 2.6%; Neu (3 h): 18%; PT (3 h): 12.3 s; Plat (3 h): 115.3 x10_4/uL; RBC (3 h): 636.6 x10_4/ul; Ret (3 h): 7.4%; WBC (3 h): 78.3 x10_2/uL; KIDNEY_L (3 h): 0.9 g; KIDNEY_R (3 h): 0.8 g; KIDNEY_TOTAL (3 h): 1.7 g; LIVER (3 h): 8.6 g; ALP (3 h): 1509.2 IU/L; ALT (3 h): 48.6 IU/L; AST (3 h): 77.6 IU/L; BUN (3 h): 11 mg/dL; CRE (3 h): 0.2 mg/dL; Ca (3 h): 10.9 mg/dL; Cl (3 h): 104.8 meq/L; DBIL (3 h): 0.036 mg/dL; GLC (3 h): 183.6 mg/dL; IP (3 h): 10.5 mg/dL; K (3 h): 3.8 meq/L; LDH (3 h): 91.6 IU/L; Na (3 h): 140 meq/L; PL (3 h): 166.4 mg/dL; RALB (3 h): 2.6 g/dL; TBIL (3 h): 0.046 mg/dL; TC (3 h): 82.8 mg/dL; TG (3 h): 121 mg/dL; TP (3 h): 5.6 g/dL; gamma-GTP (3 h): 1.2 IU/L; TERMINAL_BW (6 h): 201.9 g; APTT (6 h): 17.1 s; Bas (6 h): 0%; Eos (6 h): 0.6%; Fbg (6 h): 283.8 mg/dL; Ht (6 h): 40.4%; Lym (6 h): 73.4%; MCH (6 h): 22 pg; MCHC (6 h): 34.3%; MCV (6 h): 64 fL; Mono (6 h): 2.2%; Neu (6 h): 22.8%; PT (6 h): 12.2 s; Plat (6 h): 115 x10_4/uL; RBC (6 h): 630.8 x10_4/ul; Ret (6 h): 7.6%; WBC (6 h): 95.9 x10_2/uL; KIDNEY_L (6 h): 0.8 g; KIDNEY_R (6 h): 0.8 g; KIDNEY_TOTAL (6 h): 1.7 g; LIVER (6 h): 8 g; ALP (6 h): 1969 IU/L; ALT (6 h): 37.8 IU/L; AST (6 h): 74.4 IU/L; BUN (6 h): 10.2 mg/dL; CRE (6 h): 0.2 mg/dL; Ca (6 h): 10.7 mg/dL; Cl (6 h): 106.2 meq/L; DBIL (6 h): 0.026 mg/dL; GLC (6 h): 185.8 mg/dL; IP (6 h): 10.3 mg/dL; K (6 h): 4.1 meq/L; LDH (6 h): 69.2 IU/L; Na (6 h): 139.8 meq/L; PL (6 h): 145 mg/dL; RALB (6 h): 2.5 g/dL; TBIL (6 h): 0.046 mg/dL; TC (6 h): 75.8 mg/dL; TG (6 h): 78 mg/dL; TP (6 h): 5.4 g/dL; gamma-GTP (6 h): 1.2 IU/L; TERMINAL_BW (9 h): 205.2 g; APTT (9 h): 15.9 s; Bas (9 h): 0%; Eos (9 h): 0.8%; Fbg (9 h): 268 mg/dL; Ht (9 h): 39.5%; Lym (9 h): 74.6%; MCH (9 h): 21.3 pg; MCHC (9 h): 34.1%; MCV (9 h): 62.4 fL; Mono (9 h): 2.6%; Neu (9 h): 21.6%; PT (9 h): 12.4 s; Plat (9 h): 117.6 x10_4/uL; RBC (9 h): 632.8 x10_4/ul; Ret (9 h): 7.6%; WBC (9 h): 69.1 x10_2/uL; KIDNEY_L (9 h): 0.9 g; KIDNEY_R (9 h): 0.9 g; KIDNEY_TOTAL (9 h): 1.7 g; LIVER (9 h): 7.9 g; ALP (9 h): 1428 IU/L; ALT (9 h): 34.8 IU/L; AST (9 h): 67.4 IU/L; BUN (9 h): 10.6 mg/dL; CRE (9 h): 0.2 mg/dL; Ca (9 h): 10.6 mg/dL; Cl (9 h): 103.6 meq/L; DBIL (9 h): 0.02 mg/dL; GLC (9 h): 189 mg/dL; IP (9 h): 10.7 mg/dL; K (9 h): 3.6 meq/L; LDH (9 h): 52.8 IU/L; Na (9 h): 140.8 meq/L; PL (9 h): 146 mg/dL; RALB (9 h): 2.5 g/dL; TBIL (9 h): 0.038 mg/dL; TC (9 h): 80.2 mg/dL; TG (9 h): 53.6 mg/dL; TP (9 h): 5.2 g/dL; gamma-GTP (9 h): 1 IU/L; TERMINAL_BW (24 h): 212.4 g; APTT (24 h): 16.5 s; Bas (24 h): 0%; Eos (24 h): 1%; Fbg (24 h): 285.8 mg/dL; Ht (24 h): 38.8%; Lym (24 h): 73.8%; MCH (24 h): 21.6 pg; MCHC (24 h): 34.2%; MCV (24 h): 63.2 fL; Mono (24 h): 3%; Neu (24 h): 21.8%; PT (24 h): 12.2 s; Plat (24 h): 112.5 x10_4/uL; RBC (24 h): 614 x10_4/ul; Ret (24 h): 7.3%; WBC (24 h): 80.5 x10_2/uL; KIDNEY_L (24 h): 0.9 g; KIDNEY_R (24 h): 0.9 g; KIDNEY_TOTAL (24 h): 1.9 g; LIVER (24 h): 9.7 g; ALP (24 h): 1823.2 IU/L; ALT (24 h): 42.8 IU/L; AST (24 h): 71.4 IU/L; BUN (24 h): 14.8 mg/dL; CRE (24 h): 0.2 mg/dL; Ca (24 h): 11 mg/dL; Cl (24 h): 104.6 meq/L; DBIL (24 h): 0.02 mg/dL; GLC (24 h): 179.8 mg/dL; IP (24 h): 8.4 mg/dL; K (24 h): 4 meq/L; LDH (24 h): 61 IU/L; Na (24 h): 142.6 meq/L; PL (24 h): 147 mg/dL; RALB (24 h): 2.6 g/dL; TBIL (24 h): 0.032 mg/dL; TC (24 h): 79.8 mg/dL; TG (24 h): 71.6 mg/dL; TP (24 h): 5.5 g/dL
